The target in this assay is T1, P2X7 (UniProt Q99572).
T1 sequence (Q99572 1-595): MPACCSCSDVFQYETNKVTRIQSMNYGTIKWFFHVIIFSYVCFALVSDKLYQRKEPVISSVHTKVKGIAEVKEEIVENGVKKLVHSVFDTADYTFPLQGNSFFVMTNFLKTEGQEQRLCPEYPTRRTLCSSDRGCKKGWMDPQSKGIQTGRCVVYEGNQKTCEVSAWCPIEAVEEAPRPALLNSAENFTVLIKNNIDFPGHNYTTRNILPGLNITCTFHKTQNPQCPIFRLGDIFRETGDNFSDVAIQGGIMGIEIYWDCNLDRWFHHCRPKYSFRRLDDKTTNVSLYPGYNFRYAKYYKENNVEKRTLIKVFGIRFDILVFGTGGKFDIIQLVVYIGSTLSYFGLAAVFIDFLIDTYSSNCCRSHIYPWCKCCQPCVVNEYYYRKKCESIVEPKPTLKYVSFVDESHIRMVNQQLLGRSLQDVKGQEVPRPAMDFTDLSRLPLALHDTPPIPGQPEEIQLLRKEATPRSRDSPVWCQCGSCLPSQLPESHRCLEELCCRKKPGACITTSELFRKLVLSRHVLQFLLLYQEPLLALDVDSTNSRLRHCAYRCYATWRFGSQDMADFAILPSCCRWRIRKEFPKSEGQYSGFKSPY
Kind of assay: P2X7 activity of Table 1. The assay is classed as cell-based. As to conditions: pIC50 values for P2X7. Here is the method: Stock solutions of compounds were prepared from powders as a 10 mM DMSO stock solution. These solutions were stored at RT during the two week period of these experiments to prevent freeze-thaw of the DMSO stocks. The DMSO stocks were added to the appropriate assay buffer at a concentration of 10 μM, and then diluted serially to the final concentrations that were tested. […] The aqueous solutions of compounds as well as ATP (Sigma A7699) and BzATP (Sigma B6396) were prepared fresh for each day of experiment.
1321N1 cells stably expressing the full length human P2X7 gene (1321N1-hP2X7) and HEK293 cells stably expressing the full length rat P2X7 gene (HEK293-rP2X7) were obtained from the Roche Cell Culture Facility. 1321N1-hP2X7 cells were grown in Dulbecco's Modified Eagle's Medium (DMEM) high glucose supplemented with 10% FBS and 250 μg/mL G418. HEK293-rP2X7 cells were grown in DMEM/F-12 supplemented with 10% FBS, 1 mM CaCl2, 2 mM MgCl2, 2 mM L-Glutamine and 500 μg/ml G418. Cells were split such that they never became >70% confluent.
On the day prior to the experiment, 1321N1-hP2X7 or HEK293-rP2X7 cells were released into suspension with calcium-free PBS+Versene and washed by centrifugation with calcium-free PBS to remove the Versene. Cells were resuspended in growth medium at a density of 2.5×10^5 cells/mL and seeded into black walled, clear bottom 96 well plates (50,000 cells/well) approximately 18 hr prior to intracellular calcium flux experiments.
On the day of the experiment, plates were washed with FLIPR buffer (calcium- and magnesium-free Hank's Balanced Salt Solution (HBSS) supplemented with 10 mM Hepes, 2.5 mM probenecid and 2 mM calcium chloride) using a BIO-TEK 96 channel plate washer and incubated with […] fluo-3 dye at 37° C. for one hr. The dye was then removed by plate washing and the cells were allowed to equilibrate for 20 min at room temperature with antagonist or vehicle (FLIPR buffer). Agonist (100 μM BzATP final concentration for hP2X7; 5 μM BzATP final concentration or rP2X7) was added online with the FLIPR and fluorescence measurements made at 1 sec intervals for 60 sec followed by 3 sec intervals for a further 4 min (5 min total). A final addition of 5 μM ionomycin was made and the maximal BzATP-evoked fluorescence normalized to the maximal ionomycin-evoked fluorescence.

As to `Cc1cnc(-c2ccc(C)c(NC(=O)C3=CNC(=O)C[C@H]3c3ccc(F)cc3)c2)cn1` [Compound 45, (S)-4-(4-Fluoro-phenyl)-6-oxo-1,4,5,6-tetrahydro-pyridine-3-carboxylic acid [2-methyl-5-(5-methyl-pyrazin-2-yl)-phenyl]-amide], the pIC50 is recorded as 7.01.

Consider `Cc1ccc(N2CCCC2)cc1NC(=O)C1=CNC(=O)C[C@H]1c1ccc(F)cc1` [Compound 46, (S)-4-(4-Fluoro-phenyl)-6-oxo-1,4,5,6-tetrahydro-pyridine-3-carboxylic acid (2-methyl-5-pyrrolidin-1-yl-phenyl)-amide], for which the pIC50 came out at 7.873. Turning to `Cc1ccc(N2CCOCC2)cc1NC(=O)C1=CNC(=O)C[C@H]1c1ccc(F)cc1` [Compound 47, (S)-4-(4-Fluoro-phenyl)-6-oxo-1,4,5,6-tetrahydro-pyridine-3-carboxylic acid (2-methyl-5-morpholin-4-yl-phenyl)-amide], the pIC50 came to 6.3. In turn, `COCCn1c(C)nnc1-c1ccc(C)c(NC(=O)C2=CNC(=O)C[C@H]2c2ccc(F)cc2)c1` [Compound 48, (S)-4-(4-Fluoro-phenyl)-6-oxo-1,4,5,6-tetrahydro-pyridine-3-carboxylic acid {5-[4-(2-methoxy-ethyl)-5-methyl-4H-[1,2,4]triazol-3-yl]-2-methyl-phenyl}-amide] returned a pIC50 of 5.86. `Cc1cn(-c2ccc(C)c(NC(=O)C3=CNC(=O)C[C@H]3c3ccc(F)cc3)c2)cn1` [Compound 49, (S)-4-(4-Fluoro-phenyl)-6-oxo-1,4,5,6-tetrahydro-pyridine-3-carboxylic acid [2-methyl-5-(4-methyl-imidazol-1-yl)-phenyl]-amide] gave a pIC50 of 6.855. As to `CCOC(=O)Cn1nc(-c2ccc(C)c(NC(=O)C3=CNC(=O)C[C@H]3c3ccc(F)cc3)c2)cc1C` [Compound 50, [3-(3-{[(S)-4-(4-Fluoro-phenyl)-6-oxo-1,4,5,6-tetrahydro-pyridine-3-carbonyl]-amino}-4-methyl-phenyl)-5-methyl-pyrazol-1-yl]-acetic acid ethyl ester], the pIC50 is 7.145. In the case of `Cc1ccc(-c2ncccn2)cc1NC(=O)C1=CNC(=O)C[C@H]1c1ccc(F)cc1` [Compound 51, (S)-4-(4-Fluoro-phenyl)-6-oxo-1,4,5,6-tetrahydro-pyridine-3-carboxylic acid (2-methyl-5-pyrimidin-2-yl-phenyl)-amide] it was 7.87.

Consider `Cc1ccc(-c2cncnc2)cc1NC(=O)C1=CNC(=O)C[C@H]1c1ccc(F)cc1` [Compound 52, (S)-4-(4-Fluoro-phenyl)-6-oxo-1,4,5,6-tetrahydro-pyridine-3-carboxylic acid (2-methyl-5-pyrimidin-5-yl-phenyl)-amide], for which the pIC50 amounted to 6.425. For `Cc1nccc(-c2ccc(C)c(NC(=O)C3=CNC(=O)C[C@H]3c3ccc(F)cc3)c2)n1` [Compound 53, (S)-4-(4-Fluoro-phenyl)-6-oxo-1,4,5,6-tetrahydro-pyridine-3-carboxylic acid [2-methyl-5-(2-methyl-pyrimidin-4-yl)-phenyl]-amide], the pIC50 came out at 7.325. The compound `Cc1cc(-c2ccc(C)c(NC(=O)C3=CNC(=O)C[C@H]3c3ccc(F)cc3)c2)ccn1` [Compound 54, (S)-4-(4-Fluoro-phenyl)-6-oxo-1,4,5,6-tetrahydro-pyridine-3-carboxylic acid [2-methyl-5-(2-methyl-pyridin-4-yl)-phenyl]-amide] displayed a pIC50 of 7.045. `Cc1ccc(-c2c(Cl)cn[nH]c2=O)cc1NC(=O)C1=CNC(=O)C[C@H]1c1ccc(F)cc1` [Compound 55, (S)-4-(4-Fluoro-phenyl)-6-oxo-1,4,5,6-tetrahydro-pyridine-3-carboxylic acid [5-(5-chloro-3-oxo-2,3-dihydro-pyridazin-4-yl)-2-methyl-phenyl]-amide] yielded a pIC50 of 7.54. On to `Cc1ccc(-c2ccn[nH]c2=O)cc1NC(=O)C1=CNC(=O)C[C@H]1c1ccc(F)cc1` [Compound 56, (S)-4-(4-Fluoro-phenyl)-6-oxo-1,4,5,6-tetrahydro-pyridine-3-carboxylic acid [2-methyl-5-(3-oxo-2,3-dihydro-pyridazin-4-yl)-phenyl]-amide], for which the pIC50 is on record as 8.256. `Cc1ccc(-c2cscn2)cc1NC(=O)C1=CNC(=O)C[C@H]1c1ccc(F)cc1` [Compound 57, (S)-4-(4-Fluoro-phenyl)-6-oxo-1,4,5,6-tetrahydro-pyridine-3-carboxylic acid (2-methyl-5-thiazol-4-yl-phenyl)-amide] returned a pIC50 of 8.06. On to `Cc1nc(-c2ccc(C)c(NC(=O)C3=CNC(=O)C[C@H]3c3ccc(F)cc3)c2)cs1` [Compound 58, (S)-4-(4-Fluoro-phenyl)-6-oxo-1,4,5,6-tetrahydro-pyridine-3-carboxylic acid [2-methyl-5-(2-methyl-thiazol-4-yl)-phenyl]-amide], for which the pIC50 is recorded as 7.87.

For `Cc1ccc(-c2ccncc2)cc1NC(=O)C1=CNC(=O)C[C@H]1c1ccc(F)cc1` [Compound 59, (S)-4-(4-Fluoro-phenyl)-6-oxo-1,4,5,6-tetrahydro-pyridine-3-carboxylic acid (2-methyl-5-pyridin-4-yl-phenyl)-amide], the pIC50 is 7.22. For `CCn1c(C)nnc1-c1ccc(C)c(NC(=O)C2=CNC(=O)C[C@H]2c2ccc(F)cc2)c1` [Compound 60, (S)-4-(4-Fluoro-phenyl)-6-oxo-1,4,5,6-tetrahydro-pyridine-3-carboxylic acid [5-(4-ethyl-5-methyl-4H-[1,2,4]triazol-3-yl)-2-methyl-phenyl]-amide], the pIC50 is given as 6.535. For the compound `Cc1ccc(-c2cc(C)n(C[C@H](O)CO)n2)cc1NC(=O)C1=CN(C)C(=O)C[C@H]1c1ccc(F)cc1` [Compound 61, (S)-4-(4-Fluoro-phenyl)-1-methyl-6-oxo-1,4,5,6-tetrahydro-pyridine-3-carboxylic acid {5-[1-((S)-2,3-dihydroxy-propyl)-5-methyl-1H-pyrazol-3-yl]-2-methyl-phenyl}-amide], the pIC50 came to 7.255. Take `Cc1ccc(-c2cc(C3CC3)[nH]n2)cc1NC(=O)C1=CNC(=O)C[C@H]1c1ccc(F)cc1` [Compound 62, (S)-4-(4-Fluoro-phenyl)-6-oxo-1,4,5,6-tetrahydro-pyridine-3-carboxylic acid [5-(5-cyclopropyl-1H-pyrazol-3-yl)-2-methyl-phenyl]-amide]: the pIC50 came out at 6.935. In turn, `Cc1ccc(-c2ccn(C)n2)cc1NC(=O)C1=CNC(=O)C[C@H]1c1cccc(F)c1` [Compound 63, (S)-4-(3-Fluoro-phenyl)-6-oxo-1,4,5,6-tetrahydro-pyridine-3-carboxylic acid [2-methyl-5-(1-methyl-1H-pyrazol-3-yl)-phenyl]-amide] showed a pIC50 of 7.965. With `Cc1ccc(-c2cc(C)n(C[C@@H](O)CO)n2)cc1NC(=O)C1=CN(C)C(=O)C[C@H]1c1ccc(F)cc1` [Compound 64, (S)-4-(4-Fluoro-phenyl)-1-methyl-6-oxo-1,4,5,6-tetrahydro-pyridine-3-carboxylic acid {5-[1-((R)-2,3-dihydroxy-propyl)-5-methyl-1H-pyrazol-3-yl]-2-methyl-phenyl}-amide], the pIC50 stood at 7.585. Compound `Cc1ccc(-c2ccn(C)n2)cc1NC(=O)C1=CNC(=O)C[C@H]1c1ccc(F)cc1` [Compound 65, (S)-4-(4-Fluoro-phenyl)-6-oxo-1,4,5,6-tetrahydro-pyridine-3-carboxylic acid [2-methyl-5-(1-methyl-1H-pyrazol-3-yl)-phenyl]-amide] gave a pIC50 of 7.705. In the case of `Cc1ccc(-n2cnnc2)cc1NC(=O)C1=CNC(=O)C[C@H]1c1ccc(F)cc1` [Compound 66, (S)-4-(4-Fluoro-phenyl)-6-oxo-1,4,5,6-tetrahydro-pyridine-3-carboxylic acid (2-methyl-5-[1,2,4]triazol-4-yl-phenyl)-amide], the pIC50 amounted to 5.55.

As usually defined, the pIC50 is the negative decadic logarithm of the IC50, by convention in mol/L. Low values mean a large IC50, high ones a small IC50.

These data come from patent publication US8163929B2, “Dihydropyridone amides as P2X7 modulators” (Roche Palo Alto LLC, priority 2008, dated 2012).
